Data on two compounds can be found in patent publication US8227510B2, “Combine use of pterostilbene and quercetin for the production of cancer treatment medicaments” (Universitat de Valencia, priority 2004, dated 2012).

Each structure is given as a SMILES string. Marks after values point to notes of the source that are not given here.

This data set is described as follows: Plasma levels after oral administration in mice. Format: in vivo. The following applies: 20 mg/kg oral. An excerpt:
The mice (C57BL/6J, male, 6-8 weeks) were from Charles River Spain (Barcelona). The procedures and animal care were based on institutional standards and complied with national and international laws and policies (Directive 86/609, OJ L 358. 1 of the Council of the European Community, of 12 Dec. 1987) and the “Guide for the Care and Use of Laboratory Animals” of the National Institutes of Health (NIH, USA) (NIH Publication No. 85-23, 1985). All the animals were fed according to concentrated laboratory diets (Letica, Barcelona, Spain) allowing them free access to food and submitting them to a cycle of 12 hours of light/12 hours of darkness with ambient temperature of 22° C. The experiments were begun at 10.00 a.m. to minimize the effects of diurnal variations.
For the pharmacokinetic studies and for the daily treatment, the mice were administered i.v. (via the jugular vein, where a permanent catheter had previously been fixed by surgical methods; i.v. administration was carried out slowly for 1 minute), and orally (via stomach tube), 20 mg/kg of t-PTER (dissolved in ethanol 0.5 ml/kg of animal weight) or QUER (dissolved in dimethylsulfoxide:saline, 1:0.5 0.15 ml/kg of weight). In general, the compositions based on a combination of PTER and QUER can contain, as excipients, those stated previously or any others that are pharmaceutically acceptable. The presentation of said compositions can be, non-limitatively, in the form of solids such as tablets, capsules, pellets, pills, etc. and liquid presentations such as drops, syrups, injectables, etc. Moreover, the active principles (PTER and QUER) of the composition can be in their uncombined forms or in the form of pharmaceutically acceptable salts, including esters. The t-PTER was synthesized in our laboratory following standardized reactions of Wittig and Heck (www.orgsyn.org), whereas the QUER was obtained from Sigma Chemical Co. (San Luis, Mo., USA). The ^3H-t-PTER (2.2 Ci/mmol), labeled in the ortho and para positions of the benzene rings, was prepared in our laboratory according to a method similar to that used for the deuteration of phenols (18). ^14C-QUER (50 mCi/mmol), labeled in position 4 of the carbon ring, was obtained from the NCI Radiochemical Carcinogen Repository of Chemsyn Laboratories (Kansas City, Mo., USA). The radioactivity was measured using a Varisette 2700 TR analyzer from Packard. Blood was collected by means of the catheter in 1-ml syringes that contained heparin sodium (0.05 ml of a 5% solution in […]). The plasma and the erythrocytes were separated as described previously (19).
LC-MS/MS was carried out using a Quattro Micro triple quadrupole mass spectrometer (Micromass, Manchester, UK) equipped with an LC-10Advp pump, an SLC-10Avp control system and an SIL-10Advp autoinjector from Shimadzu. The samples were analyzed by reverse-phase high-performance liquid chromatography using a Prodigy ODS column (100×2 mm) from Phenomenex (Torrance, Calif., USA), with a particle size of 3 μm. In all cases, 40 μl was injected into the column. Column temperature was maintained at 25° C. The following gradient system was used, pumped through the column at 0.2 ml/minute (min/% A/% B/% C) (A, methanol; B, 10% acetonitrile and 90% ammonium formate 10 mM pH 3.75; C, ammonium formate 10 mM pH 3.75): 0/5/5/90, 10/5/5/90, 20/5/90/5, 30/100/0/0, 40/5/5/90. The negative ion tandem mass spectra obtained by electrospray were recorded with the electrospray capillary fixed at […] and at a temperature of the source block of 120° C. Nitrogen was used as nebulizer gas and drying gas, with flows of 300 and 30 l/h, respectively. Argon at 1.5×10^−3 mbar was used as the collision gas for collision-induced dissociation. A test was carried out based on LC-MS/MS with tracking of multiple reactions using the transitions m/z 255-240 for PTER and […] for QUER, which in both cases represent favorable fragmentation routes for these deprotonated molecules. […]

Regarding `COc1cc(/C=C/c2ccc(O)cc2)cc(OC)c1` [PTER, pterostilbene], the “time of peak of plasma levels” value was 60 min. Moreover, for the setting “5 minutes”, the “Plasma level (total)” value was found to be 2900 ± 600 nM and the “Plasma level, % free” value worked out at 67 ± 13 % free. Besides, under “10 minutes”, the “Plasma level (total)” value stood at 6600 ± 1800 nM and the “Plasma level, % free” value was found to be 50 ± 10 % free. Also, where the note is “30 minutes”, the “Plasma level (total)” value was determined as 11100 ± 3000 nM and the “Plasma level, % free” value is given as 35 ± 5 % free. Further, for the setting “60 minutes”, the “Plasma level (total)” value is 18200 ± 2700 nM and the “Plasma level, % free” value came to 17 ± 6 % free. Moreover, where the note is “120 minutes”, the “Plasma level (total)” value was determined as 13300 ± 3400 nM and the “Plasma level, % free” value came to 15 ± 3 % free. Where the note is “240 minutes”, the “Plasma level (total)” value turned out to be 10600 ± 1200 nM and the “Plasma level, % free” value is reported as 16 ± 4 % free. Moreover, under “480 minutes”, the “Plasma level (total)” value amounted to 7100 ± 800 nM and the “Plasma level, % free” value is given as 14 ± 4 % free. Moreover, under “720 minutes”, the “Plasma level (total)” value worked out at 1600 ± 500 nM and the “Plasma level, % free” value is listed as 12 ± 2 % free. Further, under “between 30 and 240 minutes”, the “free PTER as percentage of the total” value is 15-35% and the “total concentration of PTER in plasma” value is above 10 µM.
For `O=c1c(O)c(-c2ccc(O)c(O)c2)oc2cc(O)cc(O)c12` [QUER, quercetin], the “time of peak of plasma levels” value turned out to be 10 min. Moreover, where the note is “5 minutes”, the “Plasma level (total)” value came to 1600 ± 300 nM and the “Plasma level, % free” value came out at 22 ± 6 % free. Moreover, for the setting “10 minutes”, the “Plasma level (total)” value turned out to be 2300 ± 700 nM and the “Plasma level, % free” value is <0.5* % free. For the same compound, under “30 minutes”, the “Plasma level (total)” value amounted to 600 ± 200 nM and the “Plasma level, % free” value was <0.5* % free. For the setting “60 minutes”, the “Plasma level (total)” value amounted to 200 ± 100 nM and the “Plasma level, % free” value is recorded as <0.5* % free. Under “120 minutes”, the “Plasma level (total)” value is 70 ± 10 nM and the “Plasma level, % free” value was <0.5* % free. For the same compound, under “240 minutes”, the “Plasma level (total)” value was 50 ± 20 nM and the “Plasma level, % free” value is <0.5* % free. Besides, under “480 minutes”, the “Plasma level (total)” value came to 50 ± 20 nM and the “Plasma level, % free” value is given as <0.5* % free. Further, under “720 minutes”, the “Plasma level (total)” value stood at 40 ± 10 nM and the “Plasma level, % free” value is recorded as <0.5* % free. For the same compound, the “free QUER as percentage of the total” value (except for the first 5 minutes) worked out at 0.5%. For the same compound, the “levels of total QUER in plasma” value (first 10 minutes) was above 1000 nM.
